From the OPERA property sets (Mansouri et al. 2018)

Details: for log10 biotransformation half-life (days) / log10 BCF: fish

SMILES: CC(C)(C(=O)O)n1nc2ccccc2n1
- melting point: 152 °C

SMILES: CCCCC=O
- boiling point: 103 °C
- log10 Henry constant (atm·m³/mol): -3.83
- log10 vapour pressure (mmHg): 1.42
- melting point: -91.5 °C

SMILES: O=Cc1ccccc1F
- boiling point: 175 °C
- melting point: -44.5 °C

SMILES: CCOc1ccc(OCC)cc1
- boiling point: 246 °C
- melting point: 72 °C

SMILES: CCOC(=O)c1ccc(O)c(OC)c1
- boiling point: 292 °C
- melting point: 44 °C

SMILES: Clc1cc(Cl)c(Oc2cc(Cl)c(Cl)c(Cl)c2Cl)cc1Cl
- log10 biotransformation half-life (days): 1.97

SMILES: CC(CCCC(=O)O)C(=O)O (stereo not given)
- melting point: 64 °C

SMILES: CC(O)C(Cl)(Cl)Cl (stereo not given)
- boiling point: 163 °C
- melting point: 50.5 °C

SMILES: C1=CCC=C1
- boiling point: 41 °C
- log10 vapour pressure (mmHg): 2.64
- melting point: -85 °C

SMILES: N#Cc1c(Cl)c(Cl)c(Cl)c(C#N)c1Cl
- boiling point: 350 °C
- log10 Henry constant (atm·m³/mol): -5.7
- log10 Koc (L/kg): 3.26
- log10 vapour pressure (mmHg): -6.24
- melting point: 250 °C
- ready biodegradability: readily biodegradable
- log10 BCF: 1.8
- log10 biotransformation half-life (days): 0.27

SMILES: CCOP(=S)(OCC)Oc1nc(Cl)n(C(C)C)n1
- log10 Koc (L/kg): 2.01
- log10 vapour pressure (mmHg): -4.06

SMILES: c1ccc2c(c1)CCNC2
- boiling point: 232 °C

SMILES: CCCCCCCCCCCC[N+](C)(C)CC(=O)[O-]
- ready biodegradability: readily biodegradable

SMILES: CCC(=O)C(=O)O
- melting point: 33 °C

SMILES: O=C(O)CCc1ccccc1
- boiling point: 280 °C
- log10 vapour pressure (mmHg): -2.57
- melting point: 107 °C

SMILES: C=CCc1cc(Cl)ccc1O
- melting point: 48 °C

SMILES: COP(=O)(OC)OC(Br)C(Cl)(Cl)Br (stereo not given)
- log10 Koc (L/kg): 2.26
- log10 vapour pressure (mmHg): -3.7
- melting point: 27 °C

SMILES: CCCCCc1ccc(O)cc1O
- melting point: 72.5 °C

SMILES: Cc1ccnc(Cl)c1
- boiling point: 192 °C
- melting point: 115 °C

SMILES: CCNC(=S)NCC
- melting point: 78 °C

SMILES: CC(=O)OC1CC(C)OC(C)O1 (stereo not given)
- ready biodegradability: readily biodegradable

SMILES: c1ccc(N2CCN(c3ccccc3)CC2)cc1
- melting point: 165 °C

SMILES: O=C1OC(=O)c2c(I)c(I)c(I)c(I)c21
- melting point: 328 °C

SMILES: CC1=C[C@@H](O)[C@@H]2C[C@H]1C2(C)C (racemic)
- melting point: 65 °C

SMILES: CCOC(=O)Cc1c[nH]c2ccccc12
- melting point: 44.5 °C

SMILES: CN(C)C(=O)COC(=O)c1ccccc1
- melting point: 81.5 °C

SMILES: Cc1ccc2cccc(O)c2n1
- boiling point: 267 °C
- melting point: 73.8 °C

SMILES: CCNC
- boiling point: 36.5 °C

SMILES: COC(=O)c1ccccc1O
- boiling point: 223 °C
- log10 vapour pressure (mmHg): -1.46
- melting point: -8 °C

SMILES: O=CC12CC=CCC1C1CC=CCC1O2 (stereo not given)
- boiling point: 307 °C
- melting point: -80 °C

SMILES: CCCC=C(CCCC)CCCC
- boiling point: 216 °C

SMILES: CC(C)[C@H]1CC[C@H](C)C[C@@H]1OCC(=O)O
- melting point: 54 °C

SMILES: CCCCCCCCCCCCCCCC(C)=O
- boiling point: 320 °C
- melting point: 48 °C

SMILES: NNC(=O)NN
- melting point: 154 °C

SMILES: O=C1CCCC(=O)N1
- melting point: 156 °C

SMILES: Cc1cn[nH]c1
- boiling point: 206 °C

SMILES: OC(c1ccc(Cl)cc1)(c1ccc(Cl)cc1)C(Cl)(Cl)Cl
- log10 Koc (L/kg): 3.7
- log10 vapour pressure (mmHg): -6.4
- melting point: 77.5 °C
- ready biodegradability: not readily biodegradable
- log10 BCF: 3.79
- log10 biotransformation half-life (days): 1.99

SMILES: S=C(SN1CCOCC1)N1CCOCC1
- melting point: 139 °C

SMILES: CCI
- boiling point: 72.5 °C
- log10 Koa: 2.59
- log10 vapour pressure (mmHg): 2.13
- melting point: -111 °C

SMILES: CC1(C)O[C@@H]2C[C@H]3[C@@H]4C[C@H](F)C5=CC(=O)C=C[C@]5(C)[C@@]4(F)[C@@H](O)C[C@]3(C)[C@]2(C(=O)CO)O1
- melting point: 266 °C

SMILES: CCCCCCCCCCCCCCCCCCCC1CCCCC1
- boiling point: 420 °C
- melting point: 45 °C

SMILES: CCCCCCCCC=CCCCCCCCC(=O)Nc1ccccc1
- melting point: 41 °C

SMILES: CC(C)(C)CC1(C)CO1 (stereo not given)
- boiling point: 141 °C
- melting point: -64 °C

SMILES: Cc1cc(Cl)nc2ccccc12
- boiling point: 296 °C
- melting point: 59 °C

SMILES: CCCCCCCCc1ccc2ccc3cccc4ccc1c2c34
- log10 biotransformation half-life (days): 1.26

SMILES: Oc1ccncc1
- melting point: 150 °C
- ready biodegradability: readily biodegradable

SMILES: CC(C)CC(C)N (stereo not given)
- boiling point: 109 °C
- log10 Henry constant (atm·m³/mol): -4.51

SMILES: c1cc2c3c(c1)ccc1cccc(c13)C2
- boiling point: 353 °C
- melting point: 114 °C

SMILES: CC[C@H](C)C(C)(C)C
- boiling point: 110 °C
- log10 vapour pressure (mmHg): 1.51
- melting point: -112 °C

SMILES: CN(C)C(=O)Nc1ccc(Oc2ccc(Cl)cc2)cc1
- log10 Koc (L/kg): 3.55
- log10 vapour pressure (mmHg): -8.41
- melting point: 151 °C
- ready biodegradability: not readily biodegradable

SMILES: O=C(O)/C=C(/Br)C(=O)O
- melting point: 163 °C

SMILES: CCC(=O)CC
- boiling point: 102 °C
- log10 Henry constant (atm·m³/mol): -4.3
- log10 Koa: 3.2
- log10 vapour pressure (mmHg): 1.58
- melting point: -39 °C
- ready biodegradability: readily biodegradable

SMILES: CCCC(C)C(CC)CC (stereo not given)
- boiling point: 165 °C

SMILES: FC(F)(F)C(F)(F)F
- boiling point: -78.1 °C
- log10 Henry constant (atm·m³/mol): 1.31
- log10 vapour pressure (mmHg): 4.4
- melting point: -101 °C

SMILES: O=[N+]([O-])c1ccccc1CCO
- boiling point: 267 °C
- melting point: 2 °C

SMILES: CC1(C)[C@H](C=C(Cl)Cl)[C@H]1C(=O)OCc1cccc(Oc2ccccc2)c1
- ready biodegradability: not readily biodegradable

SMILES: O=[N+]([O-])c1c(Cl)cccc1-c1c[nH]cc1Cl
- melting point: 124 °C

SMILES: C1=NNCC1
- boiling point: 144 °C

SMILES: OCc1cccnc1
- boiling point: 266 °C
- melting point: -6.5 °C

SMILES: N#CCC(=O)c1ccc(N)cc1
- melting point: 159 °C

SMILES: Clc1cc(Cl)cc(-c2ccc(Cl)c(Cl)c2)c1
- log10 Henry constant (atm·m³/mol): -4.05

SMILES: Cc1csc(S)n1
- melting point: 89.3 °C

SMILES: CC(C)CCC(CO)C(C)C (stereo not given)
- boiling point: 211 °C

SMILES: CCCCCCCCC[C@H](O)CC
- melting point: 25 °C

SMILES: N#Cc1ccncc1C#N
- melting point: 80 °C

SMILES: CCCCC(CC)C(=O)O (stereo not given)
- boiling point: 228 °C
- log10 vapour pressure (mmHg): -1.52

SMILES: O=S1(=O)OCCO1
- melting point: 99 °C

SMILES: Nc1ccc(Cl)c([N+](=O)[O-])c1
- melting point: 103 °C

SMILES: N=C(N)N
- melting point: 50 °C

SMILES: O=C(CBr)OCC=CCOC(=O)CBr
- ready biodegradability: readily biodegradable

SMILES: FCI
- boiling point: 53.4 °C

SMILES: CCCCCCCCCCCCOC(C)=O
- boiling point: 265 °C
- melting point: 1.3 °C

SMILES: OOC1CCCCC1
- melting point: -20 °C

SMILES: CO[C@H](C(=O)c1ccccc1)c1ccccc1
- melting point: 49.5 °C

SMILES: CC(C)C12CCC(C)(CC1)O2
- boiling point: 174 °C
- log10 vapour pressure (mmHg): 0.286
- melting point: 1 °C

SMILES: COc1ccccc1C
- boiling point: 171 °C
- melting point: -34.1 °C

SMILES: CCC(C)C(C)CC (stereo not given)
- boiling point: 118 °C
- log10 biodegradation half-life (days): 0.477
- log10 vapour pressure (mmHg): 1.34

SMILES: O=C(O)c1cnc[nH]1
- boiling point: 294 °C

SMILES: CCCCCOc1ccccc1
- boiling point: 200 °C

SMILES: NC(=O)OCC(O)c1ccccc1 (stereo not given)
- melting point: 112 °C

SMILES: CC1(C)C(=O)Nc2ccccc21
- boiling point: 300 °C
- melting point: 154 °C

SMILES: CCNc1ccccc1C
- boiling point: 216 °C

SMILES: COc1ccc(C)c([N+](=O)[O-])c1
- boiling point: 266 °C
- melting point: 17 °C

SMILES: Nc1ccc(N)c2ccccc12
- melting point: 120 °C

SMILES: CCCC(Cl)Cl
- boiling point: 114 °C
- log10 vapour pressure (mmHg): 1.36

SMILES: O=C1Cc2cccc3cccc1c23
- melting point: 121 °C

SMILES: ClCC(Cl)Cl
- boiling point: 114 °C
- log10 Henry constant (atm·m³/mol): -3.08
- log10 Koa: 3.4
- log10 Koc (L/kg): 1.89
- log10 vapour pressure (mmHg): 1.36
- melting point: -36.6 °C
- ready biodegradability: not readily biodegradable
- log10 BCF: 0.7
- log10 biotransformation half-life (days): -1.01

SMILES: CCCCCCCC(=O)CCCCCCC
- boiling point: 291 °C
- log10 vapour pressure (mmHg): -3.39
- melting point: 43 °C

SMILES: CC1CNC(C)CN1 (stereo not given)
- boiling point: 163 °C
- log10 vapour pressure (mmHg): 0.422
- melting point: 116 °C

SMILES: CCC1(CC)C(=O)C=CNC1=O
- melting point: 90.7 °C

SMILES: Cc1ccccc1C=Cc1ccccc1C
- melting point: 83 °C

SMILES: C#CCCCCCC
- boiling point: 126 °C
- log10 vapour pressure (mmHg): 1.13
- melting point: -79.3 °C

SMILES: CC(O)C(C)O (racemic)
- boiling point: 182 °C
- log10 vapour pressure (mmHg): -0.677
- melting point: 16.3 °C
